From US6812015B1, “Histidine protein-phosphatase” (Merck Patent Gesellschaft, priority 1999, dated 2004)
Like-named read-outs stand apart in the source and are kept apart here.

Assays:
[1] = test system: histidine protein phosphatase; assay: Hydrolysis of substrates by the novel histidine protein phosphatase (specificity); type: biochemical, rabbit
Method: (§1) The activity of the soluble histidine phosphatase is determined from the dephosphorylation of ^32P-labelled histidine-phosphorylated protein (CheA) as substrate. CheA is a recombinant bacterial histidine autokinase (Bilwes A M, Alex L A, Crane B R, Simon M I (1999) Cell 96:131-141); the C-terminal kinase domain phosphorylates the N-terminal His48. […] Detection on the one hand via ammonium molybdate, and on the other hand by autoradiography (FIG. 2).
(§2) The substrate (10 μl of ^32P-CheA) is mixed with […] of assay buffer (100 mM triethanolamine/hydrochloric acid pH 8.0, 0.1% 2-mercaptoethanol, 0.02% sodium nitrite) and the enzyme solution. The reaction takes place at 37° C. in 30 min. […] After a centrifugation (5 min at 15,800 g), the supernatant is removed and measured in a scintillation counter.

histidine phosphatase = assay: Reagents affecting histidine phosphatase activity (dephosphorylation of 32P-CheA); type: biochemical, rabbit
Method: as §1, §2

[2] = target: histidine protein phosphatase purified from rabbit liver (rabbit) (UniProt P83468); assay: cell-based or functional assay
[3] = target: [gamma-32P] His-nucleoside diphosphate kinase
[4] = target: 32P-labelled histidine-phosphorylated CheA (recombinant bacterial histidine autokinase)
[5] = target: [gamma-32P] Ser/Thr-Casein
[6] = type: physicochemical, rabbit; details: in the crude homogenate and in the partially purified fractions

Molecule: O=[N+]([O-])c1ccc(OP(=O)(O)O)cc1 [p-nitrophenyl phosphate]
- Hydrolysis by the histidine phosphatase [1]: did not hydrolyze

Molecule: O=C(O)CN(CCOCCOCCN(CC(=O)O)CC(=O)O)CC(=O)O [EGTA]
- Activity (%) (histidine phosphatase; reagent concentration 5 mM): 91%

Molecule: CO[C@H]([C@H](O)CC(=O)[C@@H](C)[C@@H](O)CC[C@@H](C)[C@@H]1O[C@]2(CC[C@@H](C)[C@H](CC[C@H](C)C(C)=O)O2)CC[C@@H]1C)[C@H](OC(=O)C[C@@H](O)C1=C(C)C(=O)OC1=O)C(C)C [Tautomycin]
- Activity (%) (histidine phosphatase; reagent concentration 0.5 nM): 90%

Molecule: Inhibitor protein I1
- Activity (%) of histidine phosphatase with 1 nM reagent [2]: 120%

Molecule: [O]=[Mo](=[O])([O-])[O-] [Molybdate]
- Activity (%) (histidine phosphatase; 10 µM): 71%

Molecule: [Ca+2] [Ca^2+]
- Activity (%) (histidine phosphatase; reagent concentration 1 mM): 165%
- Activity (%) (histidine phosphatase; reagent concentration 10 mM): 240%

Molecule: Microcystin
- Activity (%) (histidine phosphatase; 0.005 µM): 110%

Molecule: [Mg+2] [Mg^2+]
- Activity (%) (histidine phosphatase; reagent concentration 1 mM): 142%
- Activity (%) (histidine phosphatase; reagent concentration 10 mM): 226%

Molecule: C=C1[C@@H](O)[C@@H]2O[C@]3(CC[C@H](/C=C/[C@@H](C)[C@@H]4CC(C)=C[C@@]5(O[C@H](C[C@@](C)(O)C(=O)O)CC[C@H]5O)O4)O3)CC[C@H]2O[C@@H]1[C@@H](O)C[C@H](C)[C@H]1O[C@@]2(CCCCO2)CC[C@H]1C [Okadaic acid]
- Activity (%) (histidine phosphatase; reagent concentration 10 μM): 108%
- Inhibition of histidine phosphatase activity (histidine phosphatase; text statement referring to Table 2): not being inhibited

Molecule: [O]=[V]([O-])([O-])[O-] [Vanadate]
- Inhibition of histidine phosphatase activity (histidine phosphatase): not being inhibited
- Activity (%) (histidine phosphatase; 10 µM): 62%

B1: histidine protein phosphatase purified from rabbit liver (protein)
chain: AAAGLAQIPDVDIDSDGVFKYVLIRVHAAPPSEAPGGESKDIVRGYKWAEYHADIYDKVSGELQKKGHDCECLGGGRISHQSQDRKIHVYGYSMGYGRAQHSVSTEKIRAKYPDYEVTWADDGY
- Hydrolysis by the novel histidin protein phosphatase [3]: -
- Hydrolysis by the novel histidin protein phosphatase [4]: +
- histidine dephosphorylation of 32P-phosphorylated CheA [4]: The purified protein shows time-, temperature-, pH- and protein-dependent histidine dephosphorylation of the 32P-phosphorylated CheA
- Hydrolysis by the novel histidin protein phosphatase [5]: -
- storage stability [6]: shows storage stability
